The values below are quoted from earlier work in patent publication US9592318B2, “Topical analgesic composition” (Animal Ethics Pty Ltd, priority 2005, dated 2017).

The test system of data set [1] is significant open wound. The settings on record: topical, FIG. 2 area '3'.
The conditions of data set [2]: following injection.

The structures appear in SMILES notation.

As for `CCN(CC)CC(=O)Nc1c(C)cccc1C` [Lignocaine], the “duration of anesthesia of open wound” value in data set [1] was “around 30 minutes”. For `CCCCN1CCCCC1C(=O)Nc1c(C)cccc1C` (centres unmarked) [bupivacaine], the duration of action in data set [2] is 6 to 8 h.
